Data as given in US7723527B2 (Janssen Pharmaceutica NV, priority 2003, dated 2010).

Experiments:
[1] = test system: human eosinophils; experiment: Inhibition of histamine-induced eosinophil shape change (gated autofluorescence forward scatter assay); conditions: for effect on histamine-induced eosinophil shape change: human eosinophils, result in words
[2] = target: T1, human histamine H4 receptor (Homo sapiens, UniProt Q9H3N8); experiment: Binding assay on recombinant human histamine H4 receptor (3H-histamine displacement); conditions: competition binding with 3H-histamine; membranes of SK-N-MC or COS7 cells expressing human H4 receptor; Cheng-Prusoff, KD 5 nM, ligand 5 nM
T1 construct: expressed in transfected cells; host or cells: SK-N-MC cells or COS7 cells, transiently transfected; cell membranes used
Outline: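 Membranes from SK-N-MC or COS7 cells transiently transfected with human H4R, incubated with ^3H-histamine (5-70 nM) at room temperature for 45 min, nonspecific binding with 10,000 nM histamine. Filtration and scintillation counting; compound affinity from displacement of ^3H-ligand across varying concentrations.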

[3] = histamine 0.01 μM, HR antagonist 10 μM or none
[4] = histamine 0.1 μM, HR antagonist 10 μM or none
[5] = histamine 1 μM, HR antagonist 10 μM or none
[6] = histamine 10 μM, HR antagonist 10 μM or none
[7] = histamine 0 μM, HR antagonist 10 μM

T1 sequence (Q9H3N8 whole entry): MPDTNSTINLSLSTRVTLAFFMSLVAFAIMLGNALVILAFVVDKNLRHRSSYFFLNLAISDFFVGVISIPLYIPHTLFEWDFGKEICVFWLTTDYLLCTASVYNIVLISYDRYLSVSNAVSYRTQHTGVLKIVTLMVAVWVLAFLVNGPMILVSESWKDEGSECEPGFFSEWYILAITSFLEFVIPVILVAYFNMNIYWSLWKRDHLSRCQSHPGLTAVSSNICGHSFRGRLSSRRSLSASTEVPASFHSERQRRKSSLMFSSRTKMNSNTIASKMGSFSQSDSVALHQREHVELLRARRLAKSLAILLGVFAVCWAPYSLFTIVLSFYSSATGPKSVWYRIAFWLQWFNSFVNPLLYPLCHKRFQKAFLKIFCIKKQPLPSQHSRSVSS

Compound	Fold Change (eosinophil shape change) [1, 3]	Fold Change (eosinophil shape change) [1, 4]	Fold Change (eosinophil shape change) [1, 5]	Fold Change (eosinophil shape change) [1, 6]	Fold Change (eosinophil shape change) [1, 7]	effect on histamine-induced eosinophil shape change [1]	IC50 ([1]; Homo sapiens, Eosinophil, read-out: IC50, inhibition of histamine-induced eosinophil shape change) [nM]	Ki [2] [nM]
NCCc1c[nH]cn1 [Histamine, histamine]	1.01	1.21	1.31	1.34	–	–	–	–
CN(C)CCOC(c1ccccc1)c1ccccc1 [diphenhydramine]	1.03	1.18	1.50	1.63	1.00	did not alter the histamine-induced shape change	–	–
CNC(=C[N+](=O)[O-])NCCSCc1ccc(CN(C)C)o1 [ranatidine]	1.04	1.21	1.49	1.64	1.00	did not alter the histamine-induced shape change	–	–
CN1CCN(C(=O)c2cc3cc(Cl)ccc3[nH]2)CC1 [(5-chloro-1H-indol-2-yl)-(4-methyl-piperazin-1-yl)-methanone]	–	–	–	–	–	–	270	–
Cc1ccc2[nH]c(-c3ccc(OCCCN4CCN(C)CC4)cc3Cl)nc2c1 [Example 42, 2-{2-Chloro-4-[3-(4-methyl-piperazin-1-yl)-propoxy]-phenyl}-5-methyl-1H-benzoimidazole]	–	–	–	–	–	–	–	79
Cc1cccc2[nH]c(-c3cc(OCCCCC4CCN(C)CC4)ncc3Br)nc12 [Example 128, 2-{5-Bromo-2-[4-(1-methyl-piperidin-4-yl)-butoxy]-pyridin-4-yl}-4-methyl-1H-benzoimidazole]	–	–	–	–	–	–	–	3
